This assay has as its system T1, Tg_chitinase.
T1 construct: gene TGME49_286465
Kind of assay: colorimetric p-nitrophenol release at […] nm, non-linear regression. The assay is classed as biochemical, Toxoplasma gondii. Conditions: substrate 0.01 to 0.1 mM; general assay 0.1 M sodium acetate buffer, 37°C; pH 4.0 and 50°C are the optima listed beside the Km.

As for `CC(=O)N[C@H]1[C@H](Oc2ccc([N+](=O)[O-])cc2)O[C@H](CO)[C@@H](O)[C@@H]1O` [pNPGlcNAc], the Michaelis-Menten constant (Km) (as a rule, the concentration of substrate that gives half-maximal velocity) amounted to 340 µM.

The values are drawn from PMC4684212, “Toxoplasma gondii Chitinase Induces Macrophage Activation” (PLoS ONE, 2015).
